Assay results reported in the CheMixHub drug solubility set.

Assay: xn = mol fraction of the nth substance listed, in the solute-free solvent

Nc1cccc2c1CN(C1CCC(=O)NC1=O)C2=O (stereo unspecified) + CCOC(C)=O + CC(C)O
solubility (g/100 g solution)
Details	273.15 K	278.15 K	283.15 K	288.15 K	293.15 K	298.15 K	303.15 K	308.15 K	313.15 K	318.15 K
x2 = 0.1457	0.111	0.13	0.152	0.176	0.202	0.232	0.267	0.306	0.354	0.41
x2 = 0.3126	0.141	0.157	0.176	0.198	0.226	0.259	0.294	0.337	0.385	0.438
x2 = 0.5057	0.179	0.201	0.223	0.247	0.274	0.301	0.334	0.37	0.41	0.454
x2 = 0.7318	0.135	0.154	0.176	0.198	0.222	0.248	0.278	0.31	0.343	0.382

CC1=NNC(=O)N(N=Cc2cccnc2)C1 + CN1CCCC1=O + CC(C)O
solubility (g/100 g solution)
Details	278.15 K	283.15 K	288.15 K	293.15 K	298.15 K	303.15 K	308.15 K	313.15 K	318.15 K
x2 = 0.1316	0.161	0.188	0.221	0.258	0.3	0.347	0.402	0.461	0.529
x2 = 0.2878	0.235	0.273	0.319	0.37	0.429	0.494	0.57	0.652	0.746
x2 = 0.4763	0.292	0.339	0.395	0.457	0.529	0.608	0.701	0.801	0.914
x2 = 0.708	0.333	0.386	0.449	0.519	0.601	0.689	0.794	0.906	1.03

Cc1ccc(-c2cc(C(F)(F)F)nn2-c2ccc(S(N)(=O)=O)cc2)cc1 + CN1CCCC1=O + CCCO
solubility (g/100 g solution)
Details	x2 = 0.06311	x2 = 0.1316	x2 = 0.2062	x2 = 0.2878	x2 = 0.3774	x2 = 0.4763	x2 = 0.5858	x2 = 0.708	x2 = 0.8451
293.15 K	5.07	5.58	6.56	6.91	7.25	9.83	11.2	13.6	16.9
298.15 K	5.96	6.26	6.96	7.72	8.23	10.3	12.2	14.6	18
303.15 K	6.68	7.1	7.85	8.74	9.16	11.9	13.4	16.3	19.6
308.15 K	7.49	8.17	9.06	9.84	10	12.7	14.5	17.3	21.1
313.15 K	8.6	9.28	9.59	10.3	10.6	13.5	15.8	19	22.6

Cc1ccc(-c2cc(C(F)(F)F)nn2-c2ccc(S(N)(=O)=O)cc2)cc1 + CN1CCCC1=O + CCO
solubility (g/100 g solution)
Details	x2 = 0.0491	x2 = 0.1041	x2 = 0.1661	x2 = 0.2365	x2 = 0.3173	x2 = 0.4108	x2 = 0.5202	x2 = 0.6502	x2 = 0.8071
293.15 K	8.15	8.62	9.04	9.29	9.69	10.4	12.6	14.8	17.6
298.15 K	8.96	9.87	10.4	10.9	11.4	12.6	14.7	16.8	19.6
303.15 K	10.2	10.9	11.3	12.3	12.9	14.4	16.7	18.8	22
308.15 K	11.1	11.8	12.6	13.8	14.3	16.4	18.8	20.9	23.9
313.15 K	12.1	12.7	13.9	15.2	15.9	19	21.3	23.5	25.9

O=C1C=CC(=O)N1c1ccccc1Br + CN1CCCC1=O + O
solubility (g/100 g solution)
Details	278.15 K	283.15 K	288.15 K	293.15 K	298.15 K	303.15 K	308.15 K	313.15 K	318.15 K	323.15 K
x2 = 0.0198	0.759	0.975	1.23	1.5	1.9	2.31	2.81	3.43	4.09	4.91
x2 = 0.04347	2.17	2.74	3.4	4.11	5.08	6.17	7.35	8.81	10.3	12.2
x2 = 0.07228	4.95	6.03	7.43	8.92	10.6	12.4	14.7	17.2	19.7	22.4
x2 = 0.1081	8.04	9.64	11.7	13.7	16.3	18.8	21.8	24.8	28	31.5
x2 = 0.1538	12.4	14.7	17.1	20	22.9	26.2	29.7	33.3	36.9	40.5
x2 = 0.2143	16.7	19.8	22.4	25.9	29.3	33.2	37	40.7	44.8	48.7
x2 = 0.2979	21.5	24.7	28.1	31.6	35.2	39.1	43.5	47.2	51.2	55.1
x2 = 0.421	24.7	28.2	31.9	35.7	40	44.2	48.6	52.7	56.9	60.9
x2 = 0.6207	26.4	29.9	34.1	38.1	42	46.6	50.6	55.1	59.5	63.9
